For series [1], the system named is 3‐hydroxy‐3‐methylglutaryl coenzyme A reductase. As to conditions: relative to pravastatin; cited from earlier work.
The conditions of series [2]: named peak only.
The format of series [3] is in vivo, human. As to conditions: for AUClast: 0.25-12 hour; for C0: plasma.
Series [4] relates to OATP1B1. It counts as in vivo, human. Conditions: human, plasma, oral; for AUC(0-t): AUClast, 0.25-12 hour; for C0: C0, plasma, baseline.
Series [5] deals with OATP1B1. As to conditions: c.521T>C carriers; cited from earlier work.
[6] abbreviates: pravastatin + cyclosporine, all genotype (N = 16).
The mark [7] stands for this setting: pravastatin + placebo, TT (N = 8).
The mark [8] stands for this setting: pravastatin + placebo, all genotype (N = 16).
[9] abbreviates: pravastatin + cyclosporine, CC (N = 2).
Setting [10] is: pravastatin + cyclosporine, TC (N = 6).
Where [11] appears, read: pravastatin + cyclosporine, TT (N = 8).
[12] abbreviates: pravastatin + placebo, CC (N = 2).
[13] abbreviates: pravastatin + placebo, TC (N = 6).

Values joined by “and” are separate entries in the source; they are usually repeats but may differ in a detail not shown here. Identical values can stand only once. Like-named read-outs stand apart in the source and are kept apart here.

For orientation: Cmax means the peak of the concentration-time curve. Broadly, the AUC(0-t) is exposure summed from dosing to a finite time, without extrapolation to infinity.

Regarding 3′α‐hydroxy‐pravastatin, the “inhibitory activity relative to the parent compound” value in series [1] is reported as “one‐tenth to one‐fortieth”. Besides, the “ratio of mean AUC0→12 in SLCO1B1 c.521CC and c.521TT” value in series [2] turned out to be 1.2 fold.

Turning to `O=C(O)CCCCCCCCCCCCC(=O)O` [TDA, tetradecanedioic acid], the AUClast in series [3] (setting [6]) came out at 0.902 ± 0.378 µM·h; in series [3] (setting [7]), 0.448 ± 0.153 µM·h; in series [3] (setting [8]), 0.593 ± 0.489 µM·h. Also, the “C0 fold increase, pravastatin plus CsA over pravastatin plus placebo” value in series [3] (CC) came out at 0.7 fold; in series [3] (TC), 1.4 fold; in series [3] (TT) it was 2.1 fold. The figures for the “AUClast fold increase, pravastatin plus CsA over pravastatin plus placebo” value in series [3] (CC (N = 2)), in series [3] (TC (N = 6)) and in series [3] (TT (N = 8)) were 0.9 fold, 1.7 fold and 2.2 fold, respectively. Moreover, the “Cavg fold increase, pravastatin plus CsA over pravastatin plus placebo” value was determined as 0.9 fold in series [3] (CC (N = 2)), 1.8 fold in series [3] (TC (N = 6)), 2.5 fold in series [3] (TT (N = 8)) and 2.0 fold in series [3] (all genotype). The “Cmax fold increase, pravastatin plus CsA over pravastatin plus placebo” value in series [3] (all genotype (N = 16)) worked out at 2.2 fold. For the same compound, the “ratio of mean AUC in SLCO1B1 c.521‐CC to c.521TT” value in series [3] (endogenous biomarker) is given as 4.0 fold. The C0 came to 68 ± 26 nM in series [3] (12 hours after first CsA dose, pravastatin + cyclosporine, all genotype); 55 ± 44 nM in series [3] (baseline, pravastatin + placebo, all genotype); 131 ± 48.9 nM with OATP1B1 [4] (pravastatin + placebo, CC); 31.3 ± 5 nM in the series with OATP1B1 [4] (pravastatin + placebo, TC); 44 ± 24.5 nM in the series on OATP1B1 [4] (pravastatin + placebo, TT). Also, the Cmax in series [3] (pravastatin + cyclosporine (N = 16)) is 149 ± 71 nM; in series [3] (pravastatin + placebo (N = 16)) it was 94.7 ± 118 nM. The Cavg came to 144 ± 13.9 nM in series [3] (setting [9]); 64.5 ± 26.4 nM in series [3] (setting [10]); 87.6 ± 29.5 nM in series [3] (setting [11]); 86.0 ± 35.8 nM in series [3] (setting [6]); 171 ± 53.7 nM in series [3] (setting [12]); 34.6 ± 10.4 nM in series [3] (setting [13]). The Cavg is 38 ± 13.7 nM in series [3] (setting [7]); 53.3 ± 49.3 nM and 53.3 ± 49.3****^, ^b nM in series [3] (setting [8]). Further, the “increase in plasma concentration, Cmax over baseline” value in series [3] (pravastatin plus placebo, individuals homozygous c.521‐CC) is listed as “at least twofold”. The “time of peak plasma level” value in series [3] (two individuals c.521‐CC) is “around 3 hours and 3.0 hours”. Moreover, the exposure AUC(0-t) in the series with OATP1B1 [4] (setting [9]) turned out to be 1.55 µM·h; with OATP1B1 [4] (setting [10]), 0.652 ± 0.246 µM·h; in the series on OATP1B1 [4] (setting [11]), 0.927 ± 0.282 µM·h; with OATP1B1 [4] (setting [12]), 1.8 µM·h; in the series with OATP1B1 [4] (setting [13]), 0.386 ± 0.084 µM·h.

On to `CCOc1cc(CC(=O)N[C@@H](CC(C)C)c2ccccc2N2CCCCC2)ccc1C(=O)O` [repaglinide], for which, in the series on OATP1B1 [5], the “increase in plasma levels in individuals with the OATP1B1‐Val174Ala variant” value is 1.5–3 fold.

Regarding `CC(C)c1nc(N(C)S(C)(=O)=O)nc(-c2ccc(F)cc2)c1/C=C/[C@@H](O)C[C@@H](O)CC(=O)O` [rosuvastatin], the “increase in plasma levels in individuals with the OATP1B1‐Val174Ala variant” value in the series on OATP1B1 [5] was 1.5–3 fold.

The values are drawn from paper PMC6662551 (Clinical and Translational Science, 2019).
